Source: patent EP0097633B1, “Determination of the sensitivity of virus to antiviral agents” (Wahren, Britta, priority 1982, dated 1984)

What was measured:
[1] = concentrations are measured in lachrymal fluid; cited from earlier work
HSV = assay: Virus sensitivity assay (VSA): HSV patient material replicated in HL-cells with antiviral agent, cell disruption, virus antigen by ELISA sandwich technique (Example 1); assay type: cell-based, herpes simplex virus (HSV); details: disrupted cells, culture of 1 to 3 days
Procedure: A material from a patient containing living HSV is mixed with a small amount of Eagle's tissue culture medium containing 2% of calf serum, 100 IE penicillin/ml and 100 […] of streptomycin/ml, after which the virus mixture is diluted 1:30 in this medium.
Sterile plastic plates comprising 24 wells, each having a culture surface of 2.5 cm^2 and containing about 5 x 10^5 HL-cells/well were inoculated with 0.1 ml of virus dilutions as above. Such of the above virus dilutions only containing a small amount of virus are first cultured for 3 days in HL-cells, on which virus replicates, after which the virus isolate from one cell passage is taken out, is diluted 1:30 and 0.1 ml of the dilutions is added to the plates as indicated above. The cells are then incubated at a temperature of 32-37°C, with addition of different antiviral agents, and without any addition of antiviral agent to obtain reference values. Each antiviral agent is added in a dilution series comprising six different concentrations (Cl-C6), some of which correspond to desired serum concentrations for the treatment of patients. In table 1 is indicated the antiviral agents and concentrations thereof used.
As a background control of virus replication taking place and for a direct typing of virus 2 cell containing wells/plate are inoculated with a mixture of 0.1 ml virus dilution and 0.05 ml of Brij-58 of 1%.
After a culture of 1 to 3 days the effect of the antiviral agents is then evaluated by measurement with ELISA sandwich technique as described below. However, the cells are treated in the following way before this measurement.
The supernatant is sucked off and in order to achieve cell disrupture 800 µl of distilled water are added to the cells on the plates. The plates are frozen at -20°C and after some time sufficient for formation of ice crystals (about 15 min) the plates are thawed to room temperature for measurement of virus antigen. If desired, the plates can be preserved in a frozen state for a long time before they are thawed in order to carry out the measurement of virus antigen. When the plates have thawed 200 µl of NaCI of 4.5% are added to the cells in order to obtain an isotonic solution.
The amount of virus antigen formed is thereafter determined as follows. Guinea pig anti-HSV-serum is diluted in 0.1-M sodium carbonate buffer. 0.1 ml of the serum dilution is filled per well in microplates (M 29 AR, Dynatech, Zug, Switzerland) which have been washed three times with NaCI-solution of 0.9% containing 0.05% of Tween® 20, after which the plates are incubated for 16 hours at room temperature. The plates can be preserved sealed with their contents at +4°C up to 2-3 months. The optimal antibody concentration has been determined by antibody titration with the respective antigen and control antigen.
0.1 ml of the cell material obtained above or a known virus antigen is filled into plates treated with antibody and is incubated for 4 hours at +4°C. After washing with the washing solution indicated above 0.1 ml of rabbit anti-HSV is added and the plates are incubated for 2 hours at +37°C. The plates are washed and 0.1 ml of conjugate is added, after which they are incubated for 2 hours at +37°C. The conjugate consists of pig anti-rabbit IgG conjugated with alkaline phosphatase (Orion Diagnostica, Helsinki, Finland) in a dilution of 1:100. Non-bonded conjugate is washed off before 100 pl of the substrate p-nitrophenyl phosphate (1 mg/ml, Sigma, St Louis, MO, USA) are added. For dilution of the substrate 1 M diethanol buffer, pH 9.8 containing 0.5 x 10-^3 M MgC12 is used and for dilution of antisera and conjugate phosphate buffer (PBS), pH 7.3-7.4 with 0.5% of Tween® 20, 0.5% of BSA (bovine serum albumin) and 0.02% of NaN3 is used. The reaction is stopped after 20-60 min with 0.025 ml of 5 M NaOH. The absorbance (A) is thereafter read at 405 nm with Titertek Multiskan® (Flow Laboratories, Irvine, Scotland). […]

[2] = C1: Ara-A 5, ACV 0.15, PFA 25, IDU 0.5 μM, C0 (no agent) 1.425
[3] = C2: Ara-A 10, ACV 0.31, PFA 50, IDU 1 μM, C0 1.425
[4] = C3: Ara-A 20, ACV 0.63, PFA 100, IDU 2 μM, C0 1.425
[5] = C4: Ara-A 40, ACV 1.25, PFA 200, IDU 4 μM, C0 1.425
[6] = C5: Ara-A 80, ACV 2.5, PFA 400, IDU 8 μM, C0 1.425
[7] = C6: Ara-A 160, ACV 5, PFA 800, IDU 16 μM, C0 1.425

In the case of `O=c1[nH]c(=O)n([C@H]2C[C@H](O)[C@@H](CO)O2)cc1I` [IDU, iododeoxyuridine], the “Serum concentrations used clinically” value [1] is listed as 4—400^1 μM or IU/ml, the “absorbance (A) at 405 nm” value (HSV; [2]) is listed as 1.011 and the “absorbance (A) at 405 nm” value (HSV; [3]) is listed as 0.847. For the same molecule, the “absorbance (A) at 405 nm” value (HSV; [4]) was 0.671, the “absorbance (A) at 405 nm” value (HSV; [5]) was 0.536 and the “absorbance (A) at 405 nm” value (HSV; [6]) was 0.344. For the same molecule, the “absorbance (A) at 405 nm” value (HSV; [7]) was 0.298.
For `Nc1ncnc2c1ncn2C1OC(CO)C(O)C1O` (stereo not shown) [Ara-A, adenosine-arabinoside], the “absorbance (A) at 405 nm” value (HSV; [2]) was 1.505, the “absorbance (A) at 405 nm” value (HSV; [3]) was 1.132 and the “absorbance (A) at 405 nm” value (HSV; [4]) was 1.017. For the same molecule, the “absorbance (A) at 405 nm” value (HSV; [5]) was 0.892, the “absorbance (A) at 405 nm” value (HSV; [6]) was 0.520 and the “absorbance (A) at 405 nm” value (HSV; [7]) was 0.473.
